Experimental data reported in ChEMBL document CHEMBL1133488 (Bioorg Med Chem Lett, 2000).
pKi: −log10 of the molar value.

Molecular target: T1, Scytalone dehydratase (Magnaporthe oryzae (strain 70-15 / FGSC 8958) (Rice blast fungus)(Pyricularia oryzae), UniProt P56221)
T1 sequence (P56221 whole entry): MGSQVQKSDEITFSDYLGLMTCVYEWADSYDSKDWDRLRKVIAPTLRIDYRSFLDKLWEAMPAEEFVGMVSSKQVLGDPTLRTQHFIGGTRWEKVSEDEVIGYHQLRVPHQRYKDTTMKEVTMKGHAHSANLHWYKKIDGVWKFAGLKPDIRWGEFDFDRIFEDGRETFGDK
Assay: The compound was evaluated for its binding affinity against wild type scytalone dehydratase (SD)
Design: species or system Pyricularia grisea

CC(C)NC(=O)c1cc(F)ccc1O
pKi: 6.35
